Key:
[1] = comparison of GLP-1-gly8 and wild type GLP-1; cited from earlier work
[2] = test system: diabetic mice implanted with encapsulated CDM3D cells; assay: In vivo evaluation of GLP-1-gly8 injected intraperitoneally in diabetic mice implanted with encapsulated CDM3D cells
Source text: The effect observed in the control group can probably be attributed to the few remaining islets (β-cells) in the pancreas of the mice that remain functional following streptozocin treatment.

[3] = test system: CDM5 cells (β-tcTet cells); assay: Cell membrane potential measured with the bis-oxonol assay; format: cell-based
Experimental: In order to test the bioefficacy of GLP-1, which was believed to be secreted by β-1081 cells, the supernatant of the 1081 cells were kept for 4 hours in 25 mM KRBH. CDM5 cells (a type of β-cTCtet cell) were then stimulated with this supernatant. Next, the effect of this stimulation in cell membrane potential was measured using the bis-oxonol assay.
Those skilled in the art will recognize that GLP-1 has the effect of depolarizing the cell membrane upon application. This depolarization is the result of the stimulatory effect of GLP-1 on cAMP, which, as discussed above, leads to increased insulin secretion. The increased insulin secretion is the result of both the enhanced closing of ATP sensitive potassium (K^+ ATP) channels in the membrane of the β-cell as well as the protein kinase A activation of distal exocytotic events.
The cells were allowed to equilibrate in 8 mM glucose and 400 μM Diazoxide for 600 seconds. At 200, 400, 600, 800, and 1000 seconds, 1, 2, 4, 6, and 8 nM GLP-1-gly8, respectively, were added to the medium.
In this experiment, the cells were equilibrated at 8 mM glucose and 400 μM of diazoxide for 600 seconds. At t=100 seconds, 100 nM of Exendine-(9-39) was added. […] At t=600 seconds, 20 μl of water was added as a dilution control.
Again, the cells were allowed to equilibrate at 8 mM glucose and 400 μM Diazoxide for 600 seconds. At 200 seconds, 24 μl of the supernatant of the GLP-1 secreting 1081 cells were added to the cells. […] At 1500 seconds, 24 μl of the supernatant was added.
Exendine (9-39) is an inhibitor of GLP-1 activity. […] In this experiment, the equilibration period lasted from time […]. At t=200 seconds, […] of Exendine (9-39) was added to the cells.

In the case of “GLP-1-gly8: commercial GLP-1-gly8, given rather than wild-type GLP-1; half-life longer than wild type GLP-1 (HDEFERHGEGTFTSDVSSYLEGQAAKEFIAWLVKGRG; Glucagon-like peptide 1; UniProt P01275 92-128, looked up, variant A8G)”, the half-life [1] is given as “longer than the half-life of wild type GLP-1”, the “glycemia after injection, test group” value ([2]; 0.1 nmol IP at t=0, streptozocin-diabetic mice implanted IP with encapsulated CDM3D cells, first two hours, FIG. 1) is given as “large decrease in glycemia” and the “glycemia after injection, control group” value ([2]; 0.1 nmol IP at t=0, streptozocin-diabetic non-implanted mice, FIG. 1) is given as “smaller (and shorter decrease) in glycemia”. For the same compound, the “loss of the effect on glycemia in the test group” value ([2]; 0.1 nmol IP, implanted diabetic mice) was 120 min, the membrane potential ([3]; 8 nM GLP-1-gly8, cells in 8 mM glucose and 400 μM Diazoxide, FIG. 3) was “saturation of the effect” and the membrane potential ([3]; 1, 2, 4, 6 nM GLP-1-gly8, cells in 8 mM glucose and 400 μM Diazoxide, FIG. 3) was “depolarization of the cell membrane”. For the same compound, the membrane potential ([3]; GLP-1-gly8 after exposure of the cells to Exendine-(9-39), FIG. 4) was “no response was observed”.

For `CC1=NS(=O)(=O)c2cc(Cl)ccc2N1` [Diazoxide], the membrane potential ([3]; 8 mM glucose and 400 μM Diazoxide, 2×10^6 cells, FIG. 6) was “maximum hyperpolarization” and the membrane potential ([3]; 400 μm Diazoxide at t=2800 s, FIG. 2) was “maximum depolarization”.
